Results: publication PMC8945686, “Anticancer Effects with Molecular Docking Confirmation of Newly Synthesized Isatin Sulfonamide Molecular Hybrid Derivatives against Hepatic Cancer Cell Lines” (Biomedicines, 2022)
Values joined by “and” are separate entries in the source; they are usually repeats but may differ in a detail not shown here. Equal entries are not always repeated.

Key:
glutathione (GSH) = test: GSH level in HepG2 cell lysate (DTNB method); assay type: cell-based, human; conditions: HepG2 treated at IC50, 48 h
Procedure: (§1) As previously described, with little modification, HepG2 cells were cultured in T25 flask until they reached 30% confluency. […] After treatment, cells were washed by PBS, trypsinized and centrifuged at 10,000 rpm. The formed pellets were washed twice with PBS and lysed in 1 mL ice-cold radio immunoprecipitation assay (RIPA) lysis buffer (50 mM Tris-HCl, pH 8.0, 150 mM NaCl, 1% Triton X-100, 0.5% sodium deoxycholate, 0.1% sodium dodecyl sulfate) and kept on ice for 20 min. Then, the mixture was centrifuged at 15,000 rpm for 15 min to remove any cell debris. The cell lysate was aliquoted and stored at −80 °C for determination of protein using Pierce BCA Protein Assay Kit (Thermo Fisher Scientific, Waltham/Boston, USA) according to manufacturer’s recommendations and determination of other biochemical parameters including EGFR, urokinase Plasminogen Activator (uPA), B-Cell Lymphoma-2 (Bcl-2), heparanase, and oxidative stress markers (glutathione; GSH and malonaldehyde; MDA).
Glutathione levels were determined using GSH Biodiagnostics kit (Cairo, Egypt). The method is based on the reduction of 5,5′dithiobis (2-nitrobenzoic acid) (DTNB) with glutathione (GSH) to produce a yellow compound. The reduced chromogen is directly proportional to GSH concentration and its absorbance was measured at 405 nm.

heparanase = test: Heparanase level in HepG2 cell lysate (ELISA); assay type: cell-based, human; conditions: HepG2 treated at IC50, 48 h
Procedure: as §1
(§2) Levels of EGFR [37] and heparanase in cell lysate were investigated using commercially available enzyme-linked immunosorbent assay (ELISA) kits supplied by Abcam (Cat. No. ab269558, ab256401, respectively). Levels of uPA [39] were measured using ELISA kit supplied by Creative Diagnostics (New York, USA, Cat. No. DEIA1630). Bcl-2 levels were determined using ELISA kit supplied by Zymed Laboratories, Carlsbad, California (Cat. No. 99-0042). Briefly, standards and samples were added to corresponding 96-well plate coated with suitable antibody. After the washing step, biotinylated anti-human antibody was added to each well. After washing away unbound biotinylated antibody, horseradish peroxidase (HRP)-conjugated streptavidin was pipetted into each well. A peroxidase substrate solution was added to all wells, after washing, and the color developed was proportionate to the amount of EGFR bound. Finally, the stop solution was added and the color intensity was measured at 450 nm.

RPE1 cells = test: In vitro safety/cell viability MTT assay on normal RPE1 cells; assay type: cell-based, human; conditions: RPE1, MTT, in words
[1] = as above; assay type: cell-based, human; conditions: human, RPE1 cells (noncancerous), normal RPE1 cells, MTT
mice = test: In vivo acute (14-day) oral toxicity study; conditions: for S.ALT / S.AST / S.Creatinine / S.D.Bilirubin / S.T.Bilirubin / S.Urea: 14 days after single dose, doxorubicin 15 mg/kg I.P; for S.ALT / S.AST / S.Creatinine / S.D.Bilirubin / S.T.Bilirubin / S.Urea / Histopathology of liver and kidney tissues (H and E) versus control groups / Kidney histology (H and E photomicrographs) / Liver histology (H and E photomicrographs): compounds 250 mg/kg oral; for Histopathology of liver and kidney tissues (H and E) versus control groups / Kidney histology (H and E photomicrographs) / Liver histology (H and E photomicrographs) / Physical or abnormal changes (body weight, skin, fur, eyes, behavior, overall appearance): 14 days; for Histopathology of liver and kidney tissues (H and E) versus control groups / Kidney histology (H and E photomicrographs) / Liver histology (H and E photomicrographs): Dox 15 mg/kg i.p.; for Survival over the treatment period (14 days) / Physical or abnormal changes (body weight, skin, fur, eyes, behavior, overall appearance): single acute oral dose of 250 mg/kg
Description: GPower 3.0.10 software was used to estimate the sample size needed for the experiment and the number of mice per group but, according to the Organization for Economic Cooperation and Development (OECD) Test Guidelines No. 407 (OECD, 2008 and updated 2017) and under the International Academy of Science’s Guide for the Care and Use of Laboratory Animals, as well as the ARRIVE guidelines, to use the least number of mice per group for the acute single dose oral toxicity test.
Animals were divided randomly into nine groups (5 animals per group). Before the experiment, the body weight (BW) of all mice was recorded. All mice were made to fast for 24 h and treated once (day zero) then carefully monitored for 14 days.
Normal control group: mice received saline orally once;
Negative control group: mice received vehicle (DMSO) orally once;
Positive control group: mice were injected with Dox (15 mg/kg BW, i.p.) once.
Isatin-sulfonamide-derivative-compound-treated groups (2a, 3a, 3d and 4b, 4c and 4d) of mice received 250 mg/kg BW of each orally once.
The animals’ BWs were recorded at the end of the 14 days of observation. Blood samples were collected from the retro-orbital plexus and allowed to clot. Sera were prepared by centrifugation at 4000 rpm for 15 min and then kept frozen at − 80 °C for liver and kidney function tests (LFTs and KFTs). Thereafter, mice were deprived of food overnight, euthanized, and sacrificed by cervical dislocation. Liver and kidney tissues were collected, washed with ice-cold saline, and weighed. Excised weighed livers and kidneys were fixed in a suitable buffer for histological examination.
Liver and kidney tissues were fixed in 10% neutral buffered formaldehyde overnight and then embedded in paraffin, […] in serial grades of alcohols, cleared in xylene, and were subjected to […], where 4 μm thick tissue sections were cut by rotatory microtome. Tissue sections were stained with hematoxylin and eosin (H and E) for histological examination using full HD light microscopic imaging system (Leica Microsystems GmbH, Wetzlar, Germany). Standard procedures for sample fixation and staining were done as previously described.

[2] = tested on: B-Cell Lymphoma-2 (Bcl-2); test: Bcl-2 level in HepG2 cell lysate (ELISA); assay type: cell-based, human; conditions: HepG2 treated at IC50, 48 h
Procedure: as §1, §2

HepG2 cells = test: Cell cycle analysis by flow cytometry (PI staining); assay type: cell-based, human; conditions: for %Cell Cycle Arrest/Phase %G0-G1 / %Cell Cycle Arrest/Phase %G2-M / %Cell Cycle Arrest/Phase %S / %Cell Cycle Arrest/Phase %pre-G1: HepG2, 5 µM, 48 h
Procedure: In 6-well plate, HepG2 (1 × 10^5 cells per well) were treated with either (0.1% DMSO) vehicle or 5 μM of 3a, 4b, and 4c compounds. After 48 h incubation, cells were harvested and fixed for 12 h using ice-cold 70% ethanol at 4 °C. Ethanol was removed and cells were washed by PBS and incubated for 30 min at 37 °C in 0.5 mL of PBS containing 1 mg/mL RNase. Then, cells were stained for 30 min with PI in the dark and the DNA content was determined using flow cytometer.

malonaldehyde (MDA) = test: MDA level in HepG2 cell lysate (TBA method); assay type: cell-based, human; conditions: HepG2 treated at IC50, 48 h
Procedure: as §1
Levels of MDA, the marker of lipid peroxidation, were measured by thiobarbituric acid (TBA) method. TBA reacts with MDA in an acidic medium at temperature of 95 °C for 30 min to form colored thiobarbituric acid reactive (TBAR) product, the absorbance of which was measured at 534 nm. The MDA kit was purchased from Biodiagnostics, Cairo, Egypt.

Structure (SMILES)	GSH level in cell lysate (glutathione (GSH))	Heparanase level in cell lysate (heparanase)	Effect towards the noncancerous cell line (RPE1) (RPE1 cells)	CC50 at 48 h [1] [µM]	viability at 48 h, 100 p.p.m (μg/mL) [1] [%]	S.ALT (mice)	S.AST (mice)	S.Creatinine (mice)	S.D.Bilirubin (mice)	S.T.Bilirubin (mice)	S.Urea (mice)	Histopathology of liver and kidney tissues (H and E) versus control groups (mice)	Kidney histology (H and E photomicrographs) (mice)	Liver histology (H and E photomicrographs) (mice)	Survival over the treatment period (14 days) (mice)	Bcl-2 level in cell lysate [2]	%Cell Cycle Arrest/Phase %G0-G1 (HepG2 cells) [%]	%Cell Cycle Arrest/Phase %G2-M (HepG2 cells) [%]	%Cell Cycle Arrest/Phase %S (HepG2 cells) [%]	%Cell Cycle Arrest/Phase %pre-G1 (HepG2 cells) [%]	further results
Cc1ccc(C(=O)CC2(O)C(=O)Nc3ccc(S(=O)(=O)N4CCCCC4)cc32)cc1 (stereo not drawn) [Compound 3a, 3-hydroxy-3-(2-oxo-2-(p-tolyl)ethyl)-5-(piperidin-1-ylsulfonyl)indolin-2-one]	1.6 ± 0.7 µmol/mg protein	1262 ± 35 pmol/mg protein and 1262 ± 35 ^a*^,b* pmol/mg protein	non-cytotoxic effect	> 100	74	27.05 ± 0.81 ^^ U/L	36.78 ± 0.33 ^^ U/L	0.82 ± 0.03 ^^ mg/dL	0.16 ± 0.002 ^^ mg/dL	0.65 ± 0.026 ^^ mg/dL	51.25 ± 0.36 ^^ mg/dL	no differences in the hepatic or renal tissue structures	intact well-organized histological features of renal parenchyma	no inflammatory cell infiltrates	survived	4.2 ± 0.1 nmol/mg protein and 4.2 ± 0.10 ^a*^,b* nmol/mg protein	31.57	44.85	23.58	46.29	Physical or abnormal changes (body weight, skin, fur, eyes, behavior, overall appearance) (mice): No physical or abnormal changes were observed; G2-M arrest, fold higher compared to the negative control (HepG2 cells; HepG2, negative control 7.1%): 6.32 fold; MDA level in cell lysate (malonaldehyde (MDA)): 2.0 ± 0.5 µmol/mg protein and 2.0 ± 0.5 ^a*^,b* µmol/mg protein
CC(=O)Nc1ccc(C(=O)C=C2C(=O)Nc3ccc(S(=O)(=O)N4CCCCC4)cc32)cc1 [Compound 4b, N-(4-(2-(2-oxo-5-(piperidin-1-ylsulfonyl)indolin-3-ylidene)acetyl)phenyl)acetamide]	1.1 ± 0.7 µmol/mg protein	1827 ± 30 pmol/mg protein and 1827 ± 30 ^a*^, b* pmol/mg protein	non-cytotoxic effect	> 100	66.4	27.95 ± 0.34 ^^ U/L	35.18 ± 0.47 ^^ U/L	0.88 ± 0.06 ^^ mg/dL	0.17 ± 0.001 ^^ mg/dL	0.70 ± 0.013 ^^ mg/dL	62.60 ± 3.64 ^^ mg/dL	no differences in the hepatic or renal tissue structures	almost intact histological features of renal parenchyma	apparently intact hepatocytes	survived	2.5 ± 0.04 nmol/mg protein and 2.5 ± 0.04 ^a,b* nmol/mg protein	41.25	5.49	53.26	28.14	Physical or abnormal changes (body weight, skin, fur, eyes, behavior, overall appearance) (mice): No physical or abnormal changes were observed; MDA level in cell lysate (malonaldehyde (MDA)): 3.7 ± 0.4 µmol/mg protein and 3.7 ± 0.4 ^a*^,b* µmol/mg protein
COc1cccc2c1C(=O)c1c(O)c3c(c(O)c1C2=O)C[C@@](O)(C(=O)CO)C[C@@H]3O[C@H]1C[C@H](N)[C@H](O)[C@H](C)O1 [Doxorubicin, reference compound]	0.8 ± 0.1 ^a* µmol/mg protein	902.1 ± 21 ^a* pmol/mg protein	–	–	–	52.97 ± 0.92 *^,# U/L	46.93 ± 0.30 *^,# U/L	1.57 ± 0.02 *^,# mg/dL	0.36 ± 0.026 *^,# mg/dL	1.45 ± 0.072 mg/dL	83.27 ± 0.95 *^,# mg/dL	hepatic and renal pathology were obvious	dilatation of the cortical tubular segments	hepatocellular necrotic changes	–	1.7 ± 0.10 ^a* nmol/mg protein	29.74	39	31.26	42.38	MDA level in cell lysate (malonaldehyde (MDA); listed as Dox): 18.5 ± 1.5 µmol/mg protein; MDA level in cell lysate (malonaldehyde (MDA); listed as Positive): 18.5 ± 1.5 ^a* µmol/mg protein
